Key:
[1] = system: Tyrosine-protein kinase ABL1 (Homo sapiens), P00519 [F317I]; conditions: Compound concentration 1000.0 nM
[2] = system: Tyrosine-protein kinase ABL1 (Homo sapiens), P00519 [T315I]; conditions: Compound concentration 1000.0 nM
[3] = target: Activin receptor type-1-like (Homo sapiens) (UniProt P37023); conditions: Compound concentration 1000.0 nM
[4] = target: Cyclin-dependent kinase 4 (Homo sapiens) (UniProt P11802); conditions: Compound concentration 1000.0 nM
[5] = target: Citron Rho-interacting kinase (Homo sapiens) (UniProt O14578); conditions: Compound concentration 1000.0 nM
[6] = target: Dual specificity protein kinase CLK2 (Homo sapiens) (UniProt P49760); conditions: Compound concentration 1000.0 nM
[7] = target: Dual specificity protein kinase CLK3 (Homo sapiens) (UniProt P49761); conditions: Compound concentration 1000.0 nM
[8] = target: Casein kinase I isoform alpha-like (Homo sapiens) (UniProt Q8N752); conditions: Compound concentration 1000.0 nM
[9] = target: Myotonin-protein kinase (Homo sapiens) (UniProt Q09013); conditions: Compound concentration 1000.0 nM
[10] = system: Epidermal growth factor receptor (Homo sapiens), P00533 [L858R,T790M]; conditions: Compound concentration 1000.0 nM
[11] = system: Epidermal growth factor receptor (Homo sapiens), P00533 [UNDEFINED MUTATION]; conditions: Compound concentration 1000.0 nM
[12] = target: Ephrin type-B receptor 3 (Homo sapiens) (UniProt P54753); conditions: Compound concentration 1000.0 nM
[13] = target: Tyrosine-protein kinase Fes/Fps (Homo sapiens) (UniProt P07332); conditions: Compound concentration 1000.0 nM
[14] = system: Fibroblast growth factor receptor 3 (Homo sapiens), P22607 [G697C]; conditions: Compound concentration 1000.0 nM
[15] = target: Cyclin-G-associated kinase (Homo sapiens) (UniProt O14976); conditions: Compound concentration 1000.0 nM
[16] = target: Insulin receptor-related protein (Homo sapiens) (UniProt P14616); conditions: Compound concentration 1000.0 nM
[17] = target: Leucine-rich repeat serine/threonine-protein kinase 2 (Homo sapiens) (UniProt Q5S007); conditions: Compound concentration 1000.0 nM
[18] = target: Mitogen-activated protein kinase kinase kinase 13 (Homo sapiens) (UniProt O43283); conditions: Compound concentration 1000.0 nM
[19] = target: Microtubule-associated serine/threonine-protein kinase 1 (Homo sapiens) (UniProt Q9Y2H9); conditions: Compound concentration 1000.0 nM
[20] = target: Serine/threonine-protein kinase MRCK beta (Homo sapiens) (UniProt Q9Y5S2); conditions: Compound concentration 1000.0 nM
[21] = target: Serine/threonine-protein kinase 4 (Homo sapiens) (UniProt Q13043); conditions: Compound concentration 1000.0 nM
[22] = target: Serine/threonine-protein kinase 38-like (Homo sapiens) (UniProt Q9Y2H1); conditions: Compound concentration 1000.0 nM
[23] = target: Serine/threonine-protein kinase Nek1 (Homo sapiens) (UniProt Q96PY6); conditions: Compound concentration 1000.0 nM
[24] = target: Serine/threonine-protein kinase PAK 6 (Homo sapiens) (UniProt Q9NQU5); conditions: Compound concentration 1000.0 nM
[25] = target: Phosphatidylinositol 4,5-bisphosphate 3-kinase catalytic subunit delta isoform (Homo sapiens) (UniProt O00329); conditions: Compound concentration 1000.0 nM
[26] = target: Serine/threonine-protein kinase PknB (Mycobacterium tuberculosis) (UniProt P9WI81); conditions: Compound concentration 1000.0 nM
[27] = target: Protein kinase C delta type (Homo sapiens) (UniProt Q05655); conditions: Compound concentration 1000.0 nM
[28] = target: Serine/threonine-protein kinase PRP4 homolog (Homo sapiens) (UniProt Q13523); conditions: Compound concentration 1000.0 nM
[29] = target: Serine/threonine-protein kinase SIK3 (Homo sapiens) (UniProt Q9Y2K2); conditions: Compound concentration 1000.0 nM
[30] = target: Receptor-interacting serine/threonine-protein kinase 2 (Homo sapiens) (UniProt O43353); conditions: Compound concentration 1000.0 nM
[31] = target: Proto-oncogene tyrosine-protein kinase ROS (Homo sapiens) (UniProt P08922); conditions: Compound concentration 1000.0 nM
[32] = target: Ribosomal protein S6 kinase alpha-5 (Homo sapiens) (UniProt O75582); conditions: Compound concentration 1000.0 nM
[33] = target: Ribosomal protein S6 kinase alpha-1 (Homo sapiens) (UniProt Q15418); conditions: Compound concentration 1000.0 nM
[34] = target: Ribosomal protein S6 kinase alpha-6 (Homo sapiens) (UniProt Q9UK32); conditions: Compound concentration 1000.0 nM
[35] = target: Serine/threonine-protein kinase SIK2 (Homo sapiens) (UniProt Q9H0K1); conditions: Compound concentration 1000.0 nM
[36] = target: Mitogen-activated protein kinase kinase kinase 7 (Homo sapiens) (UniProt O43318); conditions: Compound concentration 1000.0 nM
[37] = target: Tyrosine-protein kinase Tec (Homo sapiens) (UniProt P42680); conditions: Compound concentration 1000.0 nM
[38] = target: High affinity nerve growth factor receptor (Homo sapiens) (UniProt P04629); conditions: Compound concentration 1000.0 nM
[39] = target: Serine/threonine-protein kinase WNK3 (Homo sapiens) (UniProt Q9BYP7); conditions: Compound concentration 1000.0 nM
[40] = target: Tyrosine-protein kinase ZAP-70 (Homo sapiens) (UniProt P43403); conditions: Compound concentration 1000.0 nM
[41] = target: 5-hydroxytryptamine receptor 2A (Homo sapiens) (UniProt P28223); conditions: Compound concentration 10.0 uM
[42] = target: D(4) dopamine receptor (Homo sapiens) (UniProt P21917); conditions: Compound concentration 10.0 uM
[43] = target: Sodium-dependent dopamine transporter (Homo sapiens) (UniProt Q01959); conditions: Compound concentration 10.0 uM
[44] = target: Alpha-2B adrenergic receptor (Homo sapiens) (UniProt P18089); conditions: Compound concentration 10.0 uM
[45] = target: Muscarinic acetylcholine receptor M5 (Homo sapiens) (UniProt P08912); conditions: Compound concentration 10.0 uM
Rattus norvegicus = species: Rattus norvegicus; conditions: Compound concentration 10.0 uM

High affinity nerve growth factor receptor (Homo sapiens), sequence (P04629 33-796 limits assumed): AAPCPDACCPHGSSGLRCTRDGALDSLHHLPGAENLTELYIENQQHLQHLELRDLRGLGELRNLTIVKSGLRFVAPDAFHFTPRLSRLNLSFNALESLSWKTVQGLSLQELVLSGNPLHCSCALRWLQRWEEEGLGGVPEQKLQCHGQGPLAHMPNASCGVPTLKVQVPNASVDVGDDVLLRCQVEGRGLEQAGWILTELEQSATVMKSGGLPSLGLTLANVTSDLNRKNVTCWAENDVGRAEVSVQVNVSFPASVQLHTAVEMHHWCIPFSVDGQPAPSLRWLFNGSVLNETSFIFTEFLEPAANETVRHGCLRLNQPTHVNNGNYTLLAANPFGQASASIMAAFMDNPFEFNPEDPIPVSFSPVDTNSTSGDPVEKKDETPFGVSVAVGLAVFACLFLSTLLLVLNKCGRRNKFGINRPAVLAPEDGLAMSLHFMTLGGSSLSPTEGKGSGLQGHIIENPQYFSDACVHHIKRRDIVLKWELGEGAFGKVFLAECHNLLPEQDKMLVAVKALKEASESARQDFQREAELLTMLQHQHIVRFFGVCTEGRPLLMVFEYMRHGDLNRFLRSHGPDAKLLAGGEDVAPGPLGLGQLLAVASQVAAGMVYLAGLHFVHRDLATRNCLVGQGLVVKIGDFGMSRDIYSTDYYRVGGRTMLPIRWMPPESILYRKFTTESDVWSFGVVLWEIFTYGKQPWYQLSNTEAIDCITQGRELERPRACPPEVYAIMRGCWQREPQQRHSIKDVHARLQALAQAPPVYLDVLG
Ribosomal protein S6 kinase alpha-5 (Homo sapiens), sequence (O75582 whole entry, looked up): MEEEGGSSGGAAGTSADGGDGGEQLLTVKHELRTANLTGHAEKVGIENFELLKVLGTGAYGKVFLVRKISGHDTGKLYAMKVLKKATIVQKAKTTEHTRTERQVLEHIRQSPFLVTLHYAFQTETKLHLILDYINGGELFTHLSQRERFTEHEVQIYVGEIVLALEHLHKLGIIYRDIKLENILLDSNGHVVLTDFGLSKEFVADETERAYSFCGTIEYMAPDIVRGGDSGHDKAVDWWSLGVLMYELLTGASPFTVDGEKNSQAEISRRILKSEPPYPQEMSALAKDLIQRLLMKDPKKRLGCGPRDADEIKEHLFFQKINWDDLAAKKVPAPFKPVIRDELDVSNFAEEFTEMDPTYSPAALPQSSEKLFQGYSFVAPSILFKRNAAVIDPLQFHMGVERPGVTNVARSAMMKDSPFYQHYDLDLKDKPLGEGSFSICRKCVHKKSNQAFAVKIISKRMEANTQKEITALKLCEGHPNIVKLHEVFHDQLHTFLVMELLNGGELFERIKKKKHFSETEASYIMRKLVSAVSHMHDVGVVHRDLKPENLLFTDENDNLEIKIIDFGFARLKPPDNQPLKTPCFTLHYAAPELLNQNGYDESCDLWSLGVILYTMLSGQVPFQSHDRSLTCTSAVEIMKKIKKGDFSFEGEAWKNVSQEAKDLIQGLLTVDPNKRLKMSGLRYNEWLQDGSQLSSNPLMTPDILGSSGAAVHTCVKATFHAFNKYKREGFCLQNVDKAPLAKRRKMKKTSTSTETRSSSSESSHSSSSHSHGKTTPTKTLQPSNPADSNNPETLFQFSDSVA
Ephrin type-B receptor 3 (Homo sapiens), sequence (P54753 whole entry): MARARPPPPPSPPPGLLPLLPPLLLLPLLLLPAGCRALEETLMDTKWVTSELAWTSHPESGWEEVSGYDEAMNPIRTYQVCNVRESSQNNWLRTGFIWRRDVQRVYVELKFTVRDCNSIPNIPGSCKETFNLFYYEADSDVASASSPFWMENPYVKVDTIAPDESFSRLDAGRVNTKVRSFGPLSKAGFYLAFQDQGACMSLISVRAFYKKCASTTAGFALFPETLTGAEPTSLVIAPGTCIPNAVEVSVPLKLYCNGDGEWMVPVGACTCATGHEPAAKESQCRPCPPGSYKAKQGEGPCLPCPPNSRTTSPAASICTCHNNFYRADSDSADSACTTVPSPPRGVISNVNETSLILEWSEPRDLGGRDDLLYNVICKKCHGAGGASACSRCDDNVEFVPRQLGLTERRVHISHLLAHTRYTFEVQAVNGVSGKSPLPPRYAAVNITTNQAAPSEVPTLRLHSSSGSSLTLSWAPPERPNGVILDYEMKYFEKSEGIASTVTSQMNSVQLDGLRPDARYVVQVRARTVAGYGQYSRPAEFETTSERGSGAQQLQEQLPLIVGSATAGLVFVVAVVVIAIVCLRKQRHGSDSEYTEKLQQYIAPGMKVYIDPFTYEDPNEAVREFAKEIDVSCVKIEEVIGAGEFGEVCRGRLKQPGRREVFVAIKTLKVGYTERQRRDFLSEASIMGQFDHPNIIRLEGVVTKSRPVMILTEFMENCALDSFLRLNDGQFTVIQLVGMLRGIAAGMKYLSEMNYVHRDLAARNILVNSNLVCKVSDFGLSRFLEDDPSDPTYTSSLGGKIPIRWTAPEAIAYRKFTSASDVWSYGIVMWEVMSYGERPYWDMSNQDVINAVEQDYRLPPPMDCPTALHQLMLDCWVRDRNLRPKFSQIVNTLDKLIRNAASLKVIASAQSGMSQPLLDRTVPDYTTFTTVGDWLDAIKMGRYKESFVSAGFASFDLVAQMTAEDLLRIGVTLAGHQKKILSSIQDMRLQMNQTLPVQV
Muscarinic acetylcholine receptor M5 (Homo sapiens), sequence (P08912 whole entry): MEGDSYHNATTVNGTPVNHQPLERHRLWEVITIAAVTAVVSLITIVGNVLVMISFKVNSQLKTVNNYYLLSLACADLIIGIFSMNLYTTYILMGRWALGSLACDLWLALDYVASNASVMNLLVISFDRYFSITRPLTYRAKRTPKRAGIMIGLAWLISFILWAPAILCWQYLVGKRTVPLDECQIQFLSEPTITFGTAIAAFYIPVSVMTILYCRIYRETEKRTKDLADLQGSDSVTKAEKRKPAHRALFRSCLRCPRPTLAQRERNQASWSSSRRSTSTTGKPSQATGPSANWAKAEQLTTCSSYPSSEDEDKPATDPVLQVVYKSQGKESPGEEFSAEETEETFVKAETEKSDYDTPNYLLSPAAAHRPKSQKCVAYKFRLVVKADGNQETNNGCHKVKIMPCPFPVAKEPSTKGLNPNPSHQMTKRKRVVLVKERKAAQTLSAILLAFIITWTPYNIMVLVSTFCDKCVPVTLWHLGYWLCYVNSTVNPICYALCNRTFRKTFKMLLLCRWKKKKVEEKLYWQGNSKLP
5-hydroxytryptamine receptor 2A (Homo sapiens), sequence (P28223 whole entry): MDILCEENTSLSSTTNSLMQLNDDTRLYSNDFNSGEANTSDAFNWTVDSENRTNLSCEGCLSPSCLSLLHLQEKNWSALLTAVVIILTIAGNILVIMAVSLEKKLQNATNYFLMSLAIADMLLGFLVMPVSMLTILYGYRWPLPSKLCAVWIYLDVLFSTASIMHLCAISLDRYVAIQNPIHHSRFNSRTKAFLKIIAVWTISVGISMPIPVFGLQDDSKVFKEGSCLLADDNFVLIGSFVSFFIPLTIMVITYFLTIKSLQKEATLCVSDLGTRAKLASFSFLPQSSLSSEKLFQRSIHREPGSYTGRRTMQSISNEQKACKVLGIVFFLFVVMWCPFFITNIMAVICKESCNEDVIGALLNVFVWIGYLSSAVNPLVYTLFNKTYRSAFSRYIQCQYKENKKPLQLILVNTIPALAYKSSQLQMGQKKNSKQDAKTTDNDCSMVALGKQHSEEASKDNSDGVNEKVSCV
Mitogen-activated protein kinase kinase kinase 13 (Homo sapiens), sequence (O43283 whole entry): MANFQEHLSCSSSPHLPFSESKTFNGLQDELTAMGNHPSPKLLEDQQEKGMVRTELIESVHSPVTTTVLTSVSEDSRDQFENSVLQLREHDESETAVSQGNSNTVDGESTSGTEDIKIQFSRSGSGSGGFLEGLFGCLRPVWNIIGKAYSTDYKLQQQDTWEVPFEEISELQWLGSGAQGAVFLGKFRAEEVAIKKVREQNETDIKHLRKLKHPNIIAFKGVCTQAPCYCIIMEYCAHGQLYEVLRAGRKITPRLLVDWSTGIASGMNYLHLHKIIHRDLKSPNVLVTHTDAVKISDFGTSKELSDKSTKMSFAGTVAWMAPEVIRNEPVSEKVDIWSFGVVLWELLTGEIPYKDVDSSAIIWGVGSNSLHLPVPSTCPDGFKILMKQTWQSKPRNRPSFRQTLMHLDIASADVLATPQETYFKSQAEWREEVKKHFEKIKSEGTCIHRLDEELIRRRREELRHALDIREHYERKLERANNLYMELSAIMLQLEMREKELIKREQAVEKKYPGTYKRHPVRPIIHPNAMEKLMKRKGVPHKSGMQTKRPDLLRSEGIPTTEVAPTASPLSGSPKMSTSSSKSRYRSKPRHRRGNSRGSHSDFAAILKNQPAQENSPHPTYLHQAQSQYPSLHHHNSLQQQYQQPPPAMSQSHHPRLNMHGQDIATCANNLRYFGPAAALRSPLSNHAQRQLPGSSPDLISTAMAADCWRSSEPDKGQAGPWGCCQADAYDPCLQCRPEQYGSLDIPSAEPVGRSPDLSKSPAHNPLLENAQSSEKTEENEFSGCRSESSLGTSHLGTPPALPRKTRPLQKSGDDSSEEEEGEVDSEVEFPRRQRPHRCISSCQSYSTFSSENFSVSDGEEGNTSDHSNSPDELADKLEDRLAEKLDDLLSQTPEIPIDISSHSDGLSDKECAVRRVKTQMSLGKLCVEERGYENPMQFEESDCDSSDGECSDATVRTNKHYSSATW
Dual specificity protein kinase CLK2 (Homo sapiens), sequence (P49760 whole entry, looked up): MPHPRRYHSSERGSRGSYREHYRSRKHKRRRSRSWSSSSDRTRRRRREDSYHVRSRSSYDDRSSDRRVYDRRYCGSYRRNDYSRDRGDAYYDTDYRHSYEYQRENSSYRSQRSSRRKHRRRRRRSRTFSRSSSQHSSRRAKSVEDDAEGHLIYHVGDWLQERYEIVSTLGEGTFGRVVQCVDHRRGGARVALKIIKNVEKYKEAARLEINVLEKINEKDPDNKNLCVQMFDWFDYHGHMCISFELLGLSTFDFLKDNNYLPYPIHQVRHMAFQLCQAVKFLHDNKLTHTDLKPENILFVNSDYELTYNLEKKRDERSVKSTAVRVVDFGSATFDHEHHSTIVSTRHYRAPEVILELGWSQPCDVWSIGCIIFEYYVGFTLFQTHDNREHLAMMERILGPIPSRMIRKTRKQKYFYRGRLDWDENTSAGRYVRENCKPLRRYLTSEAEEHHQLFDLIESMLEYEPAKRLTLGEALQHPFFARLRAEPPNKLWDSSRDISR

CC(=O)C1=C(C)N(c2cccc(C(F)(F)F)c2)C(=O)N[C@@H]1c1ccc(C#N)nc1 [BAY-678]
inactive: residual activity [1] 100% | residual activity [2] 96.9% | residual activity [3] 71.7% | residual activity [4] 79.4% | residual activity [5] 77.6% | residual activity [6] 100% | residual activity [7] 100% | residual activity [8] 100% | residual activity [9] 86.5% | residual activity [10] 100% | residual activity [11] 92.9% | residual activity [12] 100% | residual activity [13] 84.1% | residual activity [14] 100% | residual activity [15] 97.2% | residual activity [16] 99.6% | residual activity [17] 80.7% | residual activity [18] 92.4% | residual activity [19] 96.9% | residual activity [20] 100% | residual activity [21] 97.5% | residual activity [22] 93.6% | residual activity [23] 100% | residual activity [24] 92.7% | residual activity [25] 89.8% | residual activity [26] 82.7% | residual activity [27] 100% | residual activity [28] 100% | residual activity [29] 100% | residual activity [30] 98.7% | residual activity [31] 100% | residual activity [32] 89.2% | residual activity [33] 100% | residual activity [34] 87.7% | residual activity [35] 87.8% | residual activity [36] 100% | residual activity [37] 100% | residual activity [38] 100% | residual activity [39] 100% | residual activity [40] 88.1% | inhibition [41] -0.427% | inhibition [42] 15.9% | inhibition [43] -0.342% | inhibition [44] -1.73% | inhibition [45] -6.78% | inhibition (Rattus norvegicus) 20%
